# According to BindingDB's records for doi:10.1016/s0960-894x(99)00336-4 (Merck Research Laboratories, 1999):
# pIC50: −log10 of the molar value.
# Assay: Inhibitory activity against Calcineurin (CaN phosphatase)
row,Compound,pIC50
1,"CC[C@@H]1/C=C(\C)C[C@H](C)C[C@H](OC)[C@H]2O[C@@](O)(C(=O)C(=O)N3CCCC[C@H]3C(=O)O[C@H](/C(C)=C/C3CC[C@@H](OC[C@@H](O)c4cc(C)cc(C)c4)[C@H](OC)C3)[C@H](C)[C@H](O)CC1=O)[C@H](C)C[C@@H]2OC (stereo partly specified) [12-(2-{4-[2-(3,5-Dimethyl-phenyl)-2-hydroxy-ethoxy]-3-methoxy-cyclohexyl}-1-methyl-vinyl)-17-ethyl-1,14-dihydroxy-23,25-dimethoxy-13,19,21,27-tetramethyl-11,28-dioxa-4-aza-tricyclo[22.3.1.0*4,9*]octacos-18-ene-2,3,10,16-tetraone]",8.10
2,"CC[C@@H]1/C=C(\C)C[C@H](C)C[C@H](OC)[C@H]2O[C@@](O)(C(=O)C(=O)N3CCCC[C@H]3C(=O)O[C@H](/C(C)=C/C3CC[C@@H](OC[C@H](O)c4cc(C)cc(C)c4)[C@H](OC)C3)[C@H](C)[C@H](O)CC1=O)[C@H](C)C[C@@H]2OC (stereo partly specified) [12-(2-{4-[2-(3,5-Dimethyl-phenyl)-2-hydroxy-ethoxy]-3-methoxy-cyclohexyl}-1-methyl-vinyl)-17-ethyl-1,14-dihydroxy-23,25-dimethoxy-13,19,21,27-tetramethyl-11,28-dioxa-4-aza-tricyclo[22.3.1.0*4,9*]octacos-18-ene-2,3,10,16-tetraone]",8.06
3,"CC[C@@H]1/C=C(\C)C[C@H](C)C[C@H](OC)[C@H]2O[C@@](O)(C(=O)C(=O)N3CCCC[C@H]3C(=O)O[C@H](/C(C)=C/C3CC[C@@H](OC[C@H](O)c4cc5ccccc5s4)[C@H](OC)C3)[C@H](C)[C@H](O)CC1=O)[C@H](C)C[C@@H]2OC (stereo partly specified) [12-{2-[4-(2-Benzo[b]thiophen-2-yl-2-hydroxy-ethoxy)-3-methoxy-cyclohexyl]-1-methyl-vinyl}-17-ethyl-1,14-dihydroxy-23,25-dimethoxy-13,19,21,27-tetramethyl-11,28-dioxa-4-aza-tricyclo[22.3.1.0*4,9*]octacos-18-ene-2,3,10,16-tetraone]",8.38
4,"CC[C@@H]1/C=C(\C)C[C@H](C)C[C@H](OC)[C@H]2O[C@@](O)(C(=O)C(=O)N3CCCC[C@H]3C(=O)O[C@H](/C(C)=C/C3CC[C@@H](OC[C@@H](O)c4cccc(C(F)(F)F)c4)[C@H](OC)C3)[C@H](C)[C@H](O)CC1=O)[C@H](C)C[C@@H]2OC (stereo partly specified) [17-Ethyl-1,14-dihydroxy-12-(2-{4-[2-hydroxy-2-(3-trifluoromethyl-phenyl)-ethoxy]-3-methoxy-cyclohexyl}-1-methyl-vinyl)-23,25-dimethoxy-13,19,21,27-tetramethyl-11,28-dioxa-4-aza-tricyclo[22.3.1.0*4,9*]octacos-18-ene-2,3,10,16-tetraone]",8.31
5,"CC[C@@H]1/C=C(\C)C[C@H](C)C[C@H](OC)[C@H]2O[C@@](O)(C(=O)C(=O)N3CCCC[C@H]3C(=O)O[C@H](/C(C)=C/C3CC[C@@H](OC[C@H](O)c4cccc(C(F)(F)F)c4)[C@H](OC)C3)[C@H](C)[C@H](O)CC1=O)[C@H](C)C[C@@H]2OC (stereo partly specified) [17-Ethyl-1,14-dihydroxy-12-(2-{4-[2-hydroxy-2-(3-trifluoromethyl-phenyl)-ethoxy]-3-methoxy-cyclohexyl}-1-methyl-vinyl)-23,25-dimethoxy-13,19,21,27-tetramethyl-11,28-dioxa-4-aza-tricyclo[22.3.1.0*4,9*]octacos-18-ene-2,3,10,16-tetraone]",8.23
6,"CC[C@@H]1/C=C(\C)C[C@H](C)C[C@H](OC)[C@H]2O[C@@](O)(C(=O)C(=O)N3CCCC[C@H]3C(=O)O[C@H](/C(C)=C/C3CC[C@@H](OC[C@@H](O)c4ccc5ccccc5c4)[C@H](OC)C3)[C@H](C)[C@H](O)CC1=O)[C@H](C)C[C@@H]2OC (stereo partly specified) [17-Ethyl-1,14-dihydroxy-12-{2-[4-(2-hydroxy-2-naphthalen-2-yl-ethoxy)-3-methoxy-cyclohexyl]-1-methyl-vinyl}-23,25-dimethoxy-13,19,21,27-tetramethyl-11,28-dioxa-4-aza-tricyclo[22.3.1.0*4,9*]octacos-18-ene-2,3,10,16-tetraone]",8.55
7,"CC[C@@H]1/C=C(\C)C[C@H](C)C[C@H](OC)[C@H]2O[C@@](O)(C(=O)C(=O)N3CCCC[C@H]3C(=O)O[C@H](/C(C)=C/C3CC[C@@H](OC[C@H](O)c4ccc5ccccc5c4)[C@H](OC)C3)[C@H](C)[C@H](O)CC1=O)[C@H](C)C[C@@H]2OC (stereo partly specified) [17-Ethyl-1,14-dihydroxy-12-{2-[4-(2-hydroxy-2-naphthalen-2-yl-ethoxy)-3-methoxy-cyclohexyl]-1-methyl-vinyl}-23,25-dimethoxy-13,19,21,27-tetramethyl-11,28-dioxa-4-aza-tricyclo[22.3.1.0*4,9*]octacos-18-ene-2,3,10,16-tetraone]",8.14

# Results, then the compound that gave them:
row,pIC50,Compound
1,8.14,"CC[C@@H]1/C=C(\C)C[C@H](C)C[C@H](OC)[C@H]2O[C@@](O)(C(=O)C(=O)N3CCCC[C@H]3C(=O)O[C@H](/C(C)=C/C3CC[C@@H](OC[C@@H](O)c4ccc(F)c(F)c4)[C@H](OC)C3)[C@H](C)[C@H](O)CC1=O)[C@H](C)C[C@@H]2OC (stereo partly specified) [12-(2-{4-[2-(3,4-Difluoro-phenyl)-2-hydroxy-ethoxy]-3-methoxy-cyclohexyl}-1-methyl-vinyl)-17-ethyl-1,14-dihydroxy-23,25-dimethoxy-13,19,21,27-tetramethyl-11,28-dioxa-4-aza-tricyclo[22.3.1.0*4,9*]octacos-18-ene-2,3,10,16-tetraone]"
2,8.06,"CC[C@@H]1/C=C(\C)C[C@H](C)C[C@H](OC)[C@H]2O[C@@](O)(C(=O)C(=O)N3CCCC[C@H]3C(=O)O[C@H](/C(C)=C/C3CC[C@@H](OC[C@H](O)c4ccc(F)c(F)c4)[C@H](OC)C3)[C@H](C)[C@H](O)CC1=O)[C@H](C)C[C@@H]2OC (stereo partly specified) [12-(2-{4-[2-(3,4-Difluoro-phenyl)-2-hydroxy-ethoxy]-3-methoxy-cyclohexyl}-1-methyl-vinyl)-17-ethyl-1,14-dihydroxy-23,25-dimethoxy-13,19,21,27-tetramethyl-11,28-dioxa-4-aza-tricyclo[22.3.1.0*4,9*]octacos-18-ene-2,3,10,16-tetraone]"
3,8.40,"CC[C@@H]1/C=C(\C)C[C@H](C)C[C@H](OC)[C@H]2O[C@@](O)(C(=O)C(=O)N3CCCC[C@H]3C(=O)O[C@H](/C(C)=C/C3CC[C@@H](OC[C@@H](O)c4cc5ccccc5s4)[C@H](OC)C3)[C@H](C)[C@H](O)CC1=O)[C@H](C)C[C@@H]2OC (stereo partly specified) [12-{2-[4-(2-Benzo[b]thiophen-2-yl-2-hydroxy-ethoxy)-3-methoxy-cyclohexyl]-1-methyl-vinyl}-17-ethyl-1,14-dihydroxy-23,25-dimethoxy-13,19,21,27-tetramethyl-11,28-dioxa-4-aza-tricyclo[22.3.1.0*4,9*]octacos-18-ene-2,3,10,16-tetraone]"
4,7.82,"C=CC[C@@H]1/C=C(\C)C[C@H](C)C[C@H](OC)[C@H]2O[C@@](O)(C(=O)C(=O)N3CCCC[C@H]3C(=O)O[C@H](/C(C)=C/[C@@H]3CC[C@@H](O)[C@H](OC)C3)[C@H](C)[C@@H](O)CC1=O)[C@H](C)C[C@@H]2OC [(E)-(1R,9S,12S,13R,14R,21S,23S,24R,25S,27R)-17-Allyl-1,14-dihydroxy-12-[(E)-2-((3R,4R)-4-hydroxy-3-methoxy-cyclohexyl)-1-methyl-vinyl]-23,25-dimethoxy-13,19,21,27-tetramethyl-11,28-dioxa-4-aza-tricyclo[22.3.1.0*4,9*]octacos-18-ene-2,3,10,16-tetraone]"
